Measurements from patent US9403803B2, “Indole-3-carboxamides as kinase inhibitors” (Allergan, Inc., priority 2014, dated 2016).

What was measured:
[1] = molecular target: VEGFR2 (KDR) kinase, purified cytoplasmic domain KDR protein (Homo sapiens (Human), UniProt P35968); assay: VEGFR2 Kinase Assay; assay type: biochemical; conditions: 2.7 μM ATP, poly-Glu-Tyr (4:1) substrate, 15 minute incubation at 30° C.
Procedure: (§1) Biochemical KDR kinase assays were performed in 96 well microtiter plates that were coated overnight with 75 μg/well of poly-Glu-Tyr (4:1) in 10 mM Phosphate Buffered Saline (PBS), pH 7.4. The coated plates were washed with 2 mls per well PBS+0.05% Tween-20 (PBS-T), blocked by incubation with PBS containing 1% BSA, then washed with 2 mls per well PBS-T prior to starting the reaction. Reactions were carried out in 100 μL reaction volumes containing 2.7 μM ATP in kinase buffer (50 mM Hepes buffer pH 7.4, 20 mM MgCl2, 0.1 mM MnCl2 and 0.2 mM Na3VO4). Test compounds were reconstituted in 100% DMSO and added to the reaction to give a final DMSO concentration of 5%. Reactions were initiated by the addition 20 ul per well of kinase buffer containing 200-300 ng purified cytoplasmic domain KDR protein (BPS Bioscience, San Diego, Calif.). Following a 15 minute incubation at 30° C., the reactions were washed 2 mls per well PBS-T. 100 μl of a monoclonal anti-phosphotyrosine antibody-peroxidase conjugate diluted 1:10,000 in PBS-T was added to the wells for 30 minutes. Following a 2 mls per well wash with PBS-Tween-20, 100 μl of O-Phenylenediamine Dihydrochloride in phosphate-citrate buffer, containing urea hydrogen peroxide, was added to the wells for 7-10 minutes as a colorimetric substrate for the peroxidase. The reaction was terminated by the addition of 100 μl of 2.5N H2SO4 to each well and read using a microplate ELISA reader set at 492 nm. IC50 values for compound inhibition were calculated directly from graphs of optical density (arbitrary units) versus compound concentration following subtraction of blank values.

[2] = molecular target: PDGFRβ kinase, purified cytoplasmic domain PDGFR-b protein (Homo sapiens (Human), UniProt P09619); assay: PDGFRβ Kinase Assay; assay type: biochemical; conditions: 36 μM ATP, poly-Glu-Tyr (4:1) substrate, 60 minute incubation at 30° C.
Sequence of PDGFRβ kinase, purified cytoplasmic domain PDGFR-b protein (P09619 554-1106): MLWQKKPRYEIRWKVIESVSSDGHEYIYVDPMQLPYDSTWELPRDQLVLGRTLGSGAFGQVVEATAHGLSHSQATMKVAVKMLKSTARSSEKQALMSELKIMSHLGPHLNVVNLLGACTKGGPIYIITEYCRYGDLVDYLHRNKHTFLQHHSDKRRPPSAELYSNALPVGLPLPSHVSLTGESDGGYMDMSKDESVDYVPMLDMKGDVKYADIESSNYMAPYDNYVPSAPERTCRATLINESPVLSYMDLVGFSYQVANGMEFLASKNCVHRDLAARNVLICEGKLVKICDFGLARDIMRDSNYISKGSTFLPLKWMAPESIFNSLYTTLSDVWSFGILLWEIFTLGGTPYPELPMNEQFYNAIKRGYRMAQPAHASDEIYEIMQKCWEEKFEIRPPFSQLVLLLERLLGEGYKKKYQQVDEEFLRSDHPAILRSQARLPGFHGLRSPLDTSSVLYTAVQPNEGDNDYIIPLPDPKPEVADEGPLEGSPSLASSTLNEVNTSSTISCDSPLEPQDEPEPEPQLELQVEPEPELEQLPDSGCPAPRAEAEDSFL
Procedure: as §1, with “Biochemical PDGFRβ” for “Biochemical KDR”, “75 μg” for “75 μg/well”, “containing 36” for “containing 2.7”, “domain PDGFR-b” for “domain KDR”, “protein (Millipore).” for “protein (BPS Bioscience, San Diego, Calif.).”, “a 60” for “a 15”

Sequence of VEGFR2 (KDR) kinase, purified cytoplasmic domain KDR protein (P35968 786-1356, species assumed): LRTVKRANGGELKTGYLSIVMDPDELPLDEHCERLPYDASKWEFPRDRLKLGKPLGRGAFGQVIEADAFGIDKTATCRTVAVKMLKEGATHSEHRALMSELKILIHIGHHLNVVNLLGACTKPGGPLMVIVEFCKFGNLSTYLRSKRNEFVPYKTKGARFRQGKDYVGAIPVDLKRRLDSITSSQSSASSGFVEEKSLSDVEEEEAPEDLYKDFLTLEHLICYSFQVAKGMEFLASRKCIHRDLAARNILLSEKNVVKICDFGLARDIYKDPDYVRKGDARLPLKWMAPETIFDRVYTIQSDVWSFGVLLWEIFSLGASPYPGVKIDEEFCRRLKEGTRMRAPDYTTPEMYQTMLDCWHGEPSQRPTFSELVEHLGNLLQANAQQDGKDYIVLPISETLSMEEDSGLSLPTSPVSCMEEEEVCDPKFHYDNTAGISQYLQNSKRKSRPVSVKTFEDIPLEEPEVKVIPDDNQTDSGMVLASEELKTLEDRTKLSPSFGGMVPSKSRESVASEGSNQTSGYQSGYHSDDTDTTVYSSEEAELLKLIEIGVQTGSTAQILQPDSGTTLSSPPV

Row | IC50 [1] [nM] | IC50 [2] [nM] | Compound
1 | 13 | 140 | Cc1cccc(NC(=O)Nc2ccc(-c3[nH]c4ccccc4c3C(N)=O)cc2)c1 [Compound 1, 2-[4-({[(3-methylphenyl)amino]carbonyl}amino)phenyl]-1H-indole-3-carboxamide]
2 | 7 | 61 | NC(=O)c1c(-c2ccc(NC(=O)Nc3cccc(C(F)(F)F)c3)cc2)[nH]c2ccccc12 [Compound 2, 2-{4-[({[3-(trifluoromethyl)phenyl]amino}carbonyl)amino]phenyl}-1H-indole-3-carboxamide]
3 | 17 | 267 | Cc1ccc(F)c(NC(=O)Nc2ccc(-c3[nH]c4ccccc4c3C(N)=O)cc2)c1 [Compound 3, 2-[4-({[(2-fluoro-5-methylphenyl)amino]carbonyl}amino)phenyl]-1H-indole-3-carboxamide]
4 | 7 | 37 | CCc1cccc(NC(=O)Nc2ccc(-c3[nH]c4ccccc4c3C(N)=O)cc2)c1 [Compound 4, 2-[4-({[(3-ethylphenyl)amino]carbonyl}amino)phenyl]-1H-indole-3-carboxamide]
5 | > 10000 | – | Cc1cccc(NC(=O)Nc2cccc(-c3[nH]c4ccccc4c3C(N)=O)c2)c1 [Compound 7, 2-[3-({[(3-methylphenyl)amino]carbonyl}amino)phenyl]-1H-indole-3-carboxamide]

The remaining lines, values behind:

Row | Compound | IC50 [1] [nM] | IC50 [2] [nM]
6 | Cc1ccoc1C(=O)Nc1ccc(-c2[nH]c3ccccc3c2C(N)=O)cc1 [Compound 5, 2-{4-[(3-methyl-2-furoyl)amino]phenyl}-1H-indole-3-carboxamide] | > 10000 | –
7 | Cc1ccc(F)c(C(=O)Nc2ccc(-c3[nH]c4ccccc4c3C(N)=O)cc2)c1 [Compound 6, 2-{4-[(2-fluoro-5-methylbenzoyl)amino]phenyl}-1H-indole-3-carboxamide] | > 10000 | –
8 | NC(=O)c1c(-c2cccc(NC(=O)Nc3cccc(C(F)(F)F)c3)c2)[nH]c2ccccc12 [Compound 8, 2-{3-[({[3-(trifluoromethyl)phenyl]amino}carbonyl)amino]phenyl}-1H-indole-3-carboxamide] | > 10000 | –
9 | Cc1ccoc1C(=O)Nc1cccc(-c2[nH]c3ccccc3c2C(N)=O)c1 [Compound 9, 2-{3-[(3-methyl-2-furoyl)amino]phenyl}-1H-indole-3-carboxamide] | > 10000 | > 10000
10 | Cc1ccc(F)c(C(=O)Nc2cccc(-c3[nH]c4ccccc4c3C(N)=O)c2)c1 [Compound 10, 2-{3-[(2-fluoro-5-methylbenzoyl)amino]phenyl}-1H-indole-3-carboxamide] | > 10000 | –
